Results taken from US12441775B2, “BCL-W polypeptides and mimetics for treating or preventing chemotherapy-induced peripheral neuropathy and hearing loss” (Dana-Farber Cancer Institute, Inc., priority 2016, dated 2025).

System: axons of E15 DRG sensory neurons
Assay: Axonal degeneration assay in compartmented chamber cultures (degeneration index)
Assay type: cell-based, rat
Method: Cell culture. Compartmented chamber (Campenot) cultures were prepared as described (see, e.g., Fenstermacher et al., Springer Protocols: Neuromethods, 103:105-124 (2015)), with modifications. Briefly, DRGs from embryonic day 15 (E15) rats of either sex were dissected and trypsinized. DRGs (1.2×10^5 cells) were plated in the center compartment of a Teflon divider (Camp10, Tyler Research; Campenot, 1982) affixed to a p35 culture dish coated with growth factor reduced Matrigel basement membrane (BD Biosciences) 1:45 in DMEM. Cultures were maintained in media consisting of Neurobasal (Invitrogen) with 2% B27 supplement (Invitrogen), 1% penicillin-streptomycin, 1% GlutaMAX (Life Technologies), 0.08% glucose, and 0.3 μM cytosine arabinoside (AraC) at 37° C., 7.5% CO2; BDNF+NGF (PeproTech) were added to the cell body compartment at a concentration of 10 ng/ml and to the axon compartment at a concentration of 100 ng/ml for 2d. On day 3, media was replaced and the AraC was omitted. On day 5, neurotrophins were removed from the cell body compartment and reduced to 1 ng/ml in the axon compartments for 3-5 days. […] For calpain inhibition experiments, 20 μM calpain inhibitor III (VWR) and paclitaxel were added simultaneously to distal axon compartment.
Axonal degeneration assay. Compartmented chamber cultures were fixed at room temperature with 4% PFA diluted 1:2 in media for 10 min, then undiluted 4% PFA for an additional 20 min. Cultures were permeabilized with 0.1% TritonX-100 for 10 min, blocked in 3% BSA and 0.1% Triton X-100 for 1 hour at room temperature, and incubated with mouse anti-Tuj1 (1:400; clone Tuj1; Covance) overnight at 4° C. Cultures were then incubated with goat anti-mouse AlexaFluor (1:1000; Invitrogen) for 1 hour at room temperature and counterstained with DAPI. Images of distal axon tips were obtained using a 40× air objective, and axonal degeneration was quantified as a degeneration index, as previously described (Cosker et al., Neuroscience, 33:5195-5207 (2013)). Apoptosis analysis was carried out on the same cultures by taking images in the cell body compartment and counting total and condensed nuclei in NIH ImageJ software by an observer blind to condition.
Protein and peptide introduction. Recombinant His-tagged Bclw, Bcl2, and BclxL proteins (R&D Systems) or control β-galactosidase protein were introduced into cell bodies or axons of compartmented chamber cultures as described (e.g., Cosker et al., Nature Neuroscience, 19:690-696 (2016)). Briefly, 1 μg/μ1 protein was introduced into cultures using 2 μl Chariot reagent (Active Motif). To confirm expression of His-tagged proteins, cell bodies and axons were lysed in nonionic detergent, and protein lysates were separated as above and blotted with the following antibodies: anti-His (1:1000; Novagen) and anti-pan-actin (1:1000; Cell Signaling Technology). FITC-tagged SAHB peptides (BH4-Bclw, BH4-Bcl2, and BH4-BclxL; stock solutions 1 mM in DMSO) were introduced into cell bodies or axons using 350 ng peptide and 2 μl of Chariot reagent diluted 1:10 in water. Control was no peptide with 2 μl of 1:10 diluted Chariot. To confirm peptide expression, cultures were processed for axonal degeneration assay as above, and FITC immunofluorescence was examined with a 40× air objective. Paclitaxel was added to cultures 1 hour after protein or peptide transfection.

[1] = His-tagged recombinant protein transfected into axons
[2] = protein introduced into cell bodies instead of axons

Molecule	effect on paclitaxel-induced axon degeneration [1]	effect on paclitaxel-induced axon degeneration [2]	effect on paclitaxel-induced axon degeneration (20 μM to axons, added with paclitaxel)
Bcl2: Recombinant His-tagged Bcl2 protein (R&D Systems) introduced by protein transfection	neither BclxL nor Bcl2 prevented degeneration	failed to inhibit paclitaxel-induced degeneration	
calpain inhibitor III			prevented paclitaxel-induced degeneration
BclxL: Recombinant His-tagged BclxL protein (R&D Systems) introduced by protein transfection	neither BclxL nor Bcl2 prevented degeneration	failed to inhibit paclitaxel-induced degeneration	
Bclw: Recombinant His-tagged Bclw protein (R&D Systems) introduced by protein transfection (protein, UniProt Q92843 2-193, looked up, His tag, Recombinant His-tagged Bclw protein (R&D Systems) introduced by protein transfection) Bcl-2-like protein 2: ATPASAPDTRALVADFVGYKLRQKGYVCGAGPGEGPAADPLHQAMRAAGDEFETRFRRTFSDLAAQLHVTPGSAQQRFTQVSDELFQGGPNWGRLVAFFVFGAALCAESVNKEMEPLVGQVQEWMVAYLETQLADWIHSSGGWAEFTALYGDGALEEARRLREGNWASVRTVLTGAVALGALVTVGAFFASK	completely prevented paclitaxel-induced axon degeneration	failed to inhibit paclitaxel-induced degeneration	
